Test results reported in PMC11855827, “High-Throughput Screening of Five Compound Libraries for Anthelmintic Activity and Toxicity Leads to the Discovery of Two Flavonoid Compounds” (International Journal of Molecular Sciences, 2025).
Values joined by “and” are separate entries in the source; they are usually repeats but may differ in a detail not shown here. Identical values can stand only once. Counter-ions that a name gives are not always drawn. Like-named read-outs stand apart in the source and are kept apart here.

Test system: C. elegans
[1] = Table S2, C. elegans SS assay, 110 μM, 0 h, averages of 4 data points
[2] = Table S2, C. elegans SS assay, 110 μM, 24 h, averages of 4 data points

Row | SMILES | Percentage of motility inhibition 0 h [1] | Percentage of motility inhibition 24 h [2] | also measured
1 | NC[C@H]1O[C@H](O[C@H]2[C@H](O[C@@H]3O[C@H](CO)[C@@H](O)[C@H]3O)[C@@H](O)[C@H](N)C[C@@H]2N)[C@H](N)[C@@H](O)[C@@H]1O.O=S(=O)(O)O [Ribostamycin (sulfate)] | 33% | 13% | 
2 | CC(N)C12CC3CC(CC(C3)C1)C2.Cl (centres unmarked) [Rimantadine (hydrochloride)] | 45% | 25% | 
3 | C=C(C)[C@@H]1CC[C@]2(C)[C@H](CC=C3[C@@H]4[C@@H](C)[C@H](C)CC[C@]4(C)CC[C@]32C)[C@@]1(C)CCC(=O)O [Roburic acid] | 11% | 15% | 
4 | C[C@@H]1CC[C@]2(C(=O)O[C@@H]3O[C@H](CO)[C@@H](O)[C@H](O)[C@H]3O)CC[C@]3(C)C(=CC[C@@H]4[C@@]5(C)C[C@@H](O)[C@H](O)C(C)(C)[C@@H]5CC[C@]43C)[C@@H]2[C@]1(C)O [Rosamultin] | 21% | 1% | 
5 | COc1cc2c(cc1OC)[C@@H]1Cc3ccc(OC)c(OC)c3CN1CC2 [Rotun dine] |  |  | Percentage of motility inhibition 0 h (0 h, 110 μM): 0%; Percentage of motility inhibition 24 h (24 h, 110 µM): 4%
6 | COc1cc2c(cc1OC)[C@@H]1Cc3ccc(OC)c(OC)c3CN1CC2 [Rotundine] |  | 12% | 
7 | C=C(C(=O)O)[C@H]1CC[C@H](C)[C@@H]2CC(=O)C(C)=C2C1 [Rupestonic acid] | 0% | 8% | 
8 | C[C@@H]1O[C@@H](OC[C@H]2O[C@@H](Oc3c(-c4ccc(O)c(O)c4)oc4cc(O)cc(O)c4c3=O)[C@H](O)[C@@H](O)[C@@H]2O)[C@H](O)[C@H](O)[C@H]1O [Ruti n] | 33% | 10% | 
9 | C[C@@H]1O[C@@H](OC[C@H]2O[C@@H](Oc3c(-c4ccc(O)c(O)c4)oc4cc(O)cc(O)c4c3=O)[C@H](O)[C@@H](O)[C@@H]2O)[C@H](O)[C@H](O)[C@H]1O.O [Rutin (hydrate)] | 2% | 8% | 
10 | C[C@@H]1O[C@@H](OC[C@H]2O[C@@H](Oc3c(-c4ccc(O)c(O)c4)oc4cc(O)cc(O)c4c3=O)[C@H](O)[C@@H](O)[C@@H]2O)[C@H](O)[C@H](O)[C@H]1O.O.O.O [Rutin (trihydrate)] | 2% | 9% | 
11 | COc1ccc(-c2oc3c(CC=C(C)C)c(O)cc(O)c3c(=O)c2O[C@@H]2O[C@@H](C)[C@H](O)[C@@H](O)[C@H]2O[C@@H]2O[C@H](CO)[C@@H](O)[C@H](O)[C@H]2O)cc1 [Sagittatoside A] | 43% | 12% | 
12 | CC1(C)CC[C@@]2(CO)C(=C3C=C[C@@H]4[C@@]5(C)CC[C@H](O)[C@@](C)(CO)[C@@H]5CC[C@@]4(C)[C@]3(C)C[C@H]2O)C1 [Saikogenin D] | 27% | 14% | 
13 | CC1(C)CC[C@]23CO[C@@]4(C=C[C@@H]5[C@@]6(C)CC[C@H](O)[C@@](C)(CO)[C@@H]6CC[C@@]5(C)[C@]4(C)C[C@@H]2O)[C@@H]3C1 [Saikogenin F] | 53% | 46% | 
14 | C[C@H]1O[C@@H](O[C@H]2CC[C@@]3(C)[C@@H](CC[C@]4(C)[C@@H]3C=CC3=C5CC(C)(C)CC[C@]5(CO)[C@H](O)C[C@]34C)[C@]2(C)CO)[C@H](O)[C@@H](O[C@@H]2O[C@H](CO)[C@@H](O)[C@H](O)[C@H]2O)[C@H]1O [Saikosaponin B2] | 19% | 11% | 
15 | CO[C@@H]1C=C2[C@@H]3CC(C)(C)CC[C@]3(CO)[C@H](O)C[C@@]2(C)[C@]2(C)CC[C@H]3[C@](C)(CO)[C@@H](O[C@@H]4O[C@H](C)[C@H](O)[C@H](O[C@@H]5O[C@H](CO)[C@@H](O)[C@H](O)[C@H]5O)[C@H]4O)CC[C@]3(C)[C@@H]12 [Saikosaponin B4] | 13% | 36% | 
16 | C[C@@H]1O[C@@H](O[C@@H]2[C@H](O)[C@@H](O)[C@H](O[C@H]3CC[C@@]4(C)C(CC[C@]5(C)C4C=C[C@]46OC[C@@]7(CCC(C)(C)CC74)[C@@H](O)C[C@]65C)C3(C)C)O[C@@H]2CO[C@@H]2O[C@H](CO)[C@@H](O)[C@H](O)[C@H]2O)[C@H](O)[C@H](O)[C@H]1O (some centres unmarked) [Saikosaponin C] | 24% | 0% | 
17 | C[C@H]1O[C@@H](O[C@H]2CC[C@@]3(C)[C@@H](CC[C@]4(C)[C@@H]3C=C[C@]35OC[C@@]6(CCC(C)(C)C[C@H]63)[C@H](O)C[C@]54C)[C@]2(C)CO)[C@H](O)[C@@H](O[C@@H]2O[C@H](CO)[C@@H](O)[C@H](O)[C@H]2O)[C@H]1O [Saikosaponin D] | 34% | 52% | 
18 | C[C@@H]1O[C@@H](O[C@H]2[C@H](O)[C@@H](O)[C@H](O[C@H]3CC[C@]4(C)[C@H]5CC=C6[C@@H]7CC(C)(C)CC[C@]7(CO)[C@@H](O)C[C@@]6(C)[C@]5(C)CC[C@H]4C3(C)C)O[C@@H]2CO[C@@H]2O[C@H](CO)[C@@H](O)[C@H](O)[C@H]2O)[C@H](O)[C@H](O)[C@H]1O [Saikosaponin F] | 1% | 0% | 
19 | CC[C@@H](C(=O)[C@@H](C)[C@@H](O)[C@H](C)[C@@H]1O[C@@H]([C@@H](CC)C(=O)O)CC[C@@H]1C)[C@H]1O[C@]2(C=C[C@@H](O)[C@]3(CC[C@@](C)([C@H]4CC[C@](O)(CC)[C@H](C)O4)O3)O2)[C@H](C)C[C@@H]1C [Salinomycin (sodium salt)] | 28% | 18% | 
20 | C[n+]1cc2c3c(ccc2c2ccc4cc5c(cc4c21)OCO5)OCO3.[Cl-] [Sanguinarine (chloride)] |  | 20% and 27% | 

Row | SMILES | Percentage of motility inhibition 0 h [1] | Percentage of motility inhibition 24 h [2] | also measured
21 | CCOC(=O)NCCCC(=O)NCCc1ccccc1 [Santacruzamate A] | 0% | 0% | 
22 | CC(C)(C)NC(=O)[C@@H]1C[C@@H]2CCCC[C@@H]2CN1C[C@@H](O)[C@H](Cc1ccccc1)NC(=O)[C@H](CC(N)=O)NC(=O)c1ccc2ccccc2n1.CS(=O)(=O)O [Saquinavir (Mesylate)] | 0% | 10% | 
23 | Cl.O=C(O)c1cn(-c2ccc(F)cc2)c2cc(N3CCNCC3)c(F)cc2c1=O [Sarafloxacin (hydrochloride)] | 32% | 3% | 
24 | COC(=O)C1=COC2OC3CC1C2C(C)O3 (centres unmarked) [Sarracenin] | 11% | 27% | 
25 | COc1ccc(-c2cc(=O)c3c(O)cc(O)c(-c4cc(-c5cc(=O)c6c(O)cc(OC)cc6o5)ccc4OC)c3o2)cc1 [Sciadopitysin] | 0% | 21% | 
26 | CC1(C)CCC[C@]2(C)[C@H]3CC(=O)O[C@]3(C)CC[C@@H]12 [Sclareolide] | 1% | 25% | 
27 | CN1[C@@H]2CC(O)C[C@H]1[C@@H]1O[C@@H]12 (some centres unmarked) [Scopine] | 13% | 5% | 
28 | COc1ccc(-c2cc(=O)c3c(OC)c(OC)c(OC)cc3o2)cc1 [Scutellarein tetramethyl ether] | 0% | 0% | 
29 | C=C[C@H]1[C@H](O[C@@H]2O[C@H](CO)[C@@H](O)[C@H](O)[C@H]2O)OC=C(C(=O)OC)[C@H]1CC(=O)O [Secoxyloganin] | 0% | 3% | 
30 | Clc1ccc(C(Cn2ccnc2)OCc2csc3c(Cl)cccc23)c(Cl)c1.O=[N+]([O-])O (centres unmarked) [Sertaconazole (nitrate)] | 40% | 6% | 
31 | COC(=O)C1=CO[C@@H](O[C@@H]2O[C@H](CO)[C@@H](O)[C@H](O)[C@H]2O)[C@@H]2[C@@]3(C)O[C@H]3[C@@H](O)[C@]12O [Sesamoside] | 4% | 25% | 
32 | C[C@]1(O)C[C@@H](O)[C@@H]2C(C(=O)O)=CO[C@@H](O[C@@H]3O[C@H](CO)[C@@H](O)[C@H](O)[C@H]3O)[C@@H]21 [Shanziside] | 1% | 4% | 
33 | CC(C)=CCC[C@]1(C)CC[C@]2(C)[C@H]3CC[C@@]4(C)[C@@H](CCC(=O)[C@@H]4C)[C@]3(C)CC[C@@]2(C)C1 [Shionone] | 24% | 52% | 
34 | C[C@H](CC[C@@H](O[C@@H]1O[C@H](CO[C@@H]2O[C@H](CO)[C@@H](O)[C@H](O)[C@H]2O)[C@@H](O)[C@H](O)[C@H]1O[C@@H]1O[C@H](CO)[C@@H](O)[C@H](O)[C@H]1O)C(C)(C)O)[C@H]1CC[C@@]2(C)[C@@H]3CC=C4[C@@H](CC[C@H](O[C@@H]5O[C@H](CO)[C@@H](O)[C@H](O)[C@H]5O)C4(C)C)[C@]3(C)[C@H](O)C[C@]12C [Siamenoside I] | 16% | 10% | 
35 | COc1cc([C@@H]2Oc3c(O)cc([C@H]4Oc5cc(O)cc(O)c5C(=O)[C@@H]4O)cc3[C@H]2CO)ccc1O [Silychristin] | 33% | 2% | 
36 | COc1cc(/C=C/C(=O)OCC[N+](C)(C)C)cc(OC)c1O.N#C[S-] [Sinapine (thiocyanate)] | 0% | 0% | 
37 | COc1cc(/C=C/C(=O)OCC[N+](C)(C)C)cc(OC)c1O [Sinapine] |  |  | Percentage of motility inhibition 0 h (110 µM): 0%; Percentage of motility inhibition 24 h (110 µM): 1%
38 | C=CC/C(=N\OS(=O)(=O)[O-])S[C@@H]1O[C@H](CO)[C@@H](O)[C@H](O)[C@H]1O.O.[K+] [Sinigrin (hydrate)] | 0% | 19% | 
39 | C=CC/C(=N/OS(=O)(=O)[O-])S[C@@H]1OC(CO)[C@@H](O)C(O)C1O.[K+] (some centres unmarked) [Sinigrin] | 0% | 0% | 
40 | COC1=C[C@@H]2[C@@H]3Cc4ccc(OC)c(O)c4[C@]2(CCN3C)CC1=O.Cl [Sinomenine hydrochloride] |  | 0% and 8% | 
